Experiments:
Vasopressin V2 = Vasopressin V2 Antagonist Activity in Conscious Hydrated Rats; type: in vivo, rat; conditions: 10 mg/kg orally, N = 2, AVP 0.4 μg/kg intraperitoneally; for Osmolality (mOsm/kg): urine
Protocol: Vasopressin V2 Antagonist Activity in Conscious Hyrdated Rats
Conscious hydrated rats are treated with compounds under study from 0.1 to 100 mg/kg orally or vehicle. Two to four rats are used for each compound. One hour later, arginine vasopressin (AVP, antidiuretic hormone, ADH) dissolved in peanut oil is administered at 0.4 μg/kg intraperitoneally. Two rats in each test would not receive arginine vasopressin but only the vehicle (peanut oil) to serve as water-loading control. Twenty minutes later each rat is given 30 mL/kg of deionized water orally by gavage and is placed individually in a metabolic cage equipped with a funnel and a graduated glass cylinder to collect urine for four hours. Urine volume is measured and osmolality analyzed by use of a Fiske One-Ten osmometer (Fiske Assoc., Norwood, Mass. U.S.A.). Urinary sodium, potassium, and chloride are analyzed by use of ion-specific electrodes in a Beckman E3(Electrolyte 3) Analyzer.
In the following results, […] and decreased osmolality relative to AVP-control indicates activity.

[1] = molecular target: T1, Rat Kidney Medullary V2 Receptors (Rattus norvegicus, UniProt Q00788); assay: Binding Assay to Rat Kidney Medullary V2 Receptors; conditions: Rat Kidney Medullary V2 Receptors (no asterisk)
T1 construct: Medullary tissues from rat kidneys are dissected out; from tissue; host or cells: rat kidney medulla membranes
Protocol: Binding Assay to Rat Kidney Medullary V2 Receptors
Medullary tissues from rat kidneys are dissected out, cut into small pieces and let soak in a […] sodium chloride solution containing 1.0 mM EDTA with many changes of the liquid phase, until the solution is clear of blood. The tissue is homogenized in a 0.25M sucrose solution containing 1.0 mM EDTA and 0.1 mM PMSF using a Potter-Elvehjem homogenizer with a teflon pestle. The homogenate is filtered through several layers (4 layers) of cheese cloth. The filtrate is rehomogenized using a dounce homogenizer, with a tight fitting pestle. The final homogenate is contrifuged at 1500×g for 15 min. The nuclear pellet is discarded and the supernatant fluid recentrifuged at 40,000×g for 30 min. The resulting pellet formed contains a dark inner part with the exterior, slightly pink. The pink outer part is suspended in a small amount of 50.0 mM Tris.HCl buffer, pH 7.4. The protein content is determined by the Lowry's method (Lowry et al, J. Biol. Chem., 1953). The membrane suspension is stored at -70° C., in 50.0 mM Tris.HCl, containing 0.2% inactivated BSA and 0.1 mM PMSF in aliquots of 1.0 ml containing 10.0 mg protein per ml of suspension until use in subsequent binding experiments.
For binding experiments, the following is added in μl volume to wells of a 96 well format of a microtiter plate: 100.0 μl of 100.0 mM Tris.HCl buffer containing 0.2% heat inactivated BSA, 10.0 mM MgCl2 and a mixture of protease inhibitors: leupeptin, 1.0 mg %; aprotinin, 1.0 mg %; 1,10-phenanthroline, 2.0 mg %; trypsin inhibitor, 10.0 mg % and 0.1 mM PMSF, 20.0 μl of [^3 H]Arginine^8, vasopressin (S.A. 75.0 Ci/mmole) at 0.8 nM and the reaction initiated by the addition of 80.0 μl of tissue membranes (200.0 μg tissue protein). The plates are left undisturbed on the bench top for 120 min. to reach equilibrium. Non-specific binding is assessed in the presence of 1.0 μM of unlabeled ligand, added in 20 μl volume. For test compounds, these are solubilized in 50% dimethylsulfoxide (DMSO) and added in 20.0 μl volume to a final incubation volume of 200 μl. Upon completion of binding, the content of each well is filtered off, using a Brandel® cell Harvester (Gaithersburg, Md.). The radioactivity trapped on the filter disk by the ligand-receptor complex is assessed by liquid scintillation counting in a Packard LS Counter, with an efficiency of 65% for tritium. The data are analyzed for IC50 values by the LUNDON-2 program for competition (LUNDON SOFTWARE, Ohio).

T1 sequence (Q00788 whole entry): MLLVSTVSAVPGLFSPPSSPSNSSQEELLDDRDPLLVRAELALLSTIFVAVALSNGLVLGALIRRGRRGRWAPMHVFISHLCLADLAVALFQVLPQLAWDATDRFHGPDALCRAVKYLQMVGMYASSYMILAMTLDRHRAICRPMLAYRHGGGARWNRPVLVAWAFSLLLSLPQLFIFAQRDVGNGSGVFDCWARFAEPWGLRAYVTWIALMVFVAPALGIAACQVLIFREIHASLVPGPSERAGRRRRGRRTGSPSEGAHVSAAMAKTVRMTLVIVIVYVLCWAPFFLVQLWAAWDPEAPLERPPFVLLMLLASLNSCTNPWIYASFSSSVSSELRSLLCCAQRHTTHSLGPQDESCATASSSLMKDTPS

SMILES | Urine Vol. (ml/4 hrs.) (Vasopressin V2) | Osmolality (mOsm/kg) (Vasopressin V2) | IC50 [1] [µM]
O=C(Nc1ccc(C(=O)N2CCc3cn[nH]c3-c3sccc32)cc1)c1ccc(F)cc1Cl [Example 1, N-[4-[(4,5-Dihydropyrazolo[3,4-d]thieno[3,2-b]azepin-6(1H)-yl)carbonyl]phenyl]-2-chloro-4-fluorobenzamide] | 15.3 | 535 | 0.34
Cc1ccc(F)cc1C(=O)Nc1ccc(C(=O)N2CCc3c[nH]nc3-c3ncccc32)cc1 [Example 367, N-[4-[4(4,5-Dihydropyrazolo[3,4-d]pyrido[3,2-b]azepin-6(1H)-yl)carbonyl]phenyl]-5-fluoro-2-methylbenzamide] | 10 | 627 | 0.03
O=C(Nc1ccc(C(=O)N2CCc3cn[nH]c3-c3ncccc32)cc1)c1ccccc1-c1ccccc1 [Example 365, N-[4-[(4,5-Dihydropyrazolo[3,4-d]pyrido[3,2-b]azepin-6(1H)-yl)carbonyl]phenyl][1,1'-biphenyl]-2-carboxamide] | 2.6 | 251 | 0.0016
